Test results reported in patent US7462614B2, “Imidazotriazine compounds” (Smithkline Beecham Corporation, priority 2003, dated 2008).

The molecules below were run against T1, truncated human PLK1 (kinase domain) (Homo sapiens, UniProt P53350) (assay: Assay for Inhibition of PLK1 (33P SPA enzyme activity)). Conditions: 1 μM ATP, 2 nM enzyme; read-out: Ave pIC50 PLK Enzyme Inhibition (converted).
T1 construct: made in house; host or cells: baculovirus-infected T. ni insect cells
Assay type: biochemical
Method: I. Assay for Inhibition of PLK1
A. Preparation of 6× N-Terminal His-Tagged PLK Kinase Domain
All procedures are performed at 4° C. Cells are lysed in 25 mM HEPES, 200 mM NaCl, 25 mM imidazole; pH 8.0. The homogenate is centrifuged at 14K rpm in a SLA-1500 rotor for 40 min and the supernatant filtered through a 1.2 micron filter. The supernatant is loaded onto a Nickel chelating Sepharose (Amersham Pharmacia) column and washed with 25 mM HEPES, 500 mM NaCl, 25 mM imidazole; pH 8.0. […] PLK is concentrated using a 10 kDa molecular weight cutoff membrane and then loaded onto a Superdex 75 gel filtration (Amersham BioSciences) column equilibrated in 25 mM HEPES, 1 mM DTT, 500 mM NaCl; pH 8.0. Fractions containing PLK are determined by SDS-PAGE. PLK is pooled, aliquoted and stored at […]. Samples are quality controlled using mass spectrometry.
B. Enzyme Activity±Inhibitors is Determined As Follows:
Compounds are added to the plate (1 μL in 100% DMSO).
Immediately upon addition of enzyme and thorough mixing, add 20 uL per well into 384-well white plates containing compounds and controls. […] The enzymatic reaction is stopped with 50 μl of bead mix (50 mM EDTA, 2 mg/ml Streptavidin-coated SPA beads in Standard Dulbecco's PBS (without Mg^2+and Ca^2+), and 60 μM ATP).

T1 sequence (P53350 21-346): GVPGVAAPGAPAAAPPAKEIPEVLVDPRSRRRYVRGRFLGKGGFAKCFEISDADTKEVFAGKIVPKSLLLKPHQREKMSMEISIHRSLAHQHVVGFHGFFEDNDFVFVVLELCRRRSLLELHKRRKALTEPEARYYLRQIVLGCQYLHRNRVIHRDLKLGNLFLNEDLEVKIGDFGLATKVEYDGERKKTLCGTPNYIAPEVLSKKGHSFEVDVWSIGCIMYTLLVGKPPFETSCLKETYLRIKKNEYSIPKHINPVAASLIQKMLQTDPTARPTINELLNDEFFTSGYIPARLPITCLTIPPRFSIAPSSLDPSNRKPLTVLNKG

Row | IC50 [µM] | Structure (SMILES)
1 | 0.1 to 10 | COc1ccc(Nc2ncc3c(C)nc(-c4cccc(C(F)(F)F)c4)n3n2)c(OC)c1 [Example 54, N-(2,4-Dimethoxyphenyl)-5-methyl-7-[3-(trifluoromethyl)phenyl]-imidazo[5,1-f][1,2,4]triazin-2-amine]
2 | 0.1 to 10 | COc1ccc(OC)c(Nc2ncc3c(C)nc(-c4cccc(C(F)(F)F)c4)n3n2)c1 [Example 55, N-(2,5-Dimethoxyphenyl)-5-methyl-7-[3-(trifluoromethyl)phenyl]-imidazo[5,1-f][1,2,4]triazin-2-amine]
3 | 0.1 to 10 | CCOC(=O)c1cncc(Nc2ncc3c(C)nc(-c4cccc(C(F)(F)F)c4)n3n2)c1 [Example 56, Ethyl 5-({5-methyl-7-[3-(trifluoromethyl)phenyl]imidazo[5,1-f][1,2,4]triazin-2-yl}amino)nicotinate]
4 | 0.1 to 10 | COc1cc(Nc2ncc3c(C)nc(-c4cccc(C#Cc5cn[nH]c5)c4)n3n2)cc(OC)c1OC [Example 58, 5-Methyl-7-[3-(1H-pyrazol-4-ylethynyl)phenyl]-N-(3,4,5-trimethoxyphenyl)imidazo[5,1-f][1,2,4]triazin-2-amine]
5 | 0.1 to 10 | COc1cc(Nc2ncc3c(C)nc(-c4cccc(-c5cccc(C(=O)O)c5)c4)n3n2)cc(OC)c1OC [Example 59, 3′-{5-Methyl-2-[(3,4,5-trimethoxyphenyl)amino]imidazo[5,1-f][1,2,4]triazin-7-yl}-1,1′-biphenyl-3-carboxylic acid]
6 | 0.1 to 10 | COc1cc(Nc2ncc3c(C)nc(-c4cccc(-c5ccc(CC(N)C(=O)O)cc5)c4)n3n2)cc(OC)c1OC (centres unmarked) [Example 60, 2-Amino-3-(3′-{5-methyl-2-[(3,4,5-trimethoxyphenyl)amino]imidazo-[5,1-f][1,2,4]triazin-7-yl}-1,1′-biphenyl-4-yl)propanoic acid]
7 | 0.1 to 10 | COc1cc(Nc2ncc3c(C)nc(-c4cccc(-c5ccccc5C(F)(F)F)c4)n3n2)cc(OC)c1OC [Example 61, 5-Methyl-7-[2′-(trifluoromethyl)-1,1′-biphenyl-3-yl]-N-(3,4,5-trimethoxyphenyl)imidazo[5,1-f][1,2,4]triazin-2-amine]
8 | 0.1 to 10 | COc1cc(Nc2ncc3c(C)nc(-c4cccc(/C(=C\C(N)=O)c5ccccc5)c4)n3n2)cc(OC)c1OC [Example 62, (2Z)-3-(3-{5-Methyl-2-[(3,4,5-trimethoxyphenyl)amino]-imidazo[5,1-f][1,2,4]triazin-7-yl}phenyl)-3-phenylprop-2-enamide]
9 | > 10 | CCS(=O)(=O)c1ccc(OC)c(Nc2cccc(-c3nc(C)c4cnc(Nc5cc(OC)c(OC)c(OC)c5)nn34)c2)c1 [Example 63, 7-(3-{[5-(Ethylsulfonyl)-2-methoxyphenyl]amino}phenyl)-5-methyl-N-(3,4,5-trimethoxyphenyl)imidazo[5,1-f][1,2,4]triazin-2-amine]
10 | 0.1 to 10 | COc1cc(Nc2ncc3c(C)nc(-c4cccc(Nc5ccc(Cn6cncn6)cc5)c4)n3n2)cc(OC)c1OC [Example 64, 5-Methyl-7-(3-{[4-(1H-1,2,4-triazol-1-ylmethyl)phenyl]amino}-phenyl)-N-(3,4,5-trimethoxyphenyl)imidazo[5,1-f][1,2,4]triazin-2-amine]
11 | > 10 | COc1cc(Nc2ncc3c(C)nc(-c4cccc(Nc5ccc(-n6ccnc6)cc5)c4)n3n2)cc(OC)c1OC [Example 65, 7-(3-{[4-(1H-Imidazol-1-yl)phenyl]amino}phenyl)-5-nv-5-methyl-N-(3,4,5-trimethoxyphenyl)imidazo[5,1-f][1,2,4]triazin-2-amine]
12 | 0.1 to 10 | COc1cc(Nc2ncc3c(C)nc(-c4cccc(Nc5ccc(N6CCOCC6)c(Cl)c5)c4)n3n2)cc(OC)c1OC [Example 66, 7-{3-[(3-Chloro-4-morpholin-4-ylphenyl)amino]phenyl}-5-methyl-N-(3,4,5-trimethoxyphenyl)imidazo[5,1-f][1,2,4]triazin-2-amine]
13 | 0.1 to 10 | COc1cc(Nc2ncc3c(C)nc(-c4cccc(Nc5cccc(CS(=O)(=O)N(C)C)c5)c4)n3n2)cc(OC)c1OC [Example 67, N,N-Dimethyl-1-{3-[(3-{5-methyl-2-[(3,4,5-trimethoxyphenyl)amino]imidazo[5,1-f][1,2,4]triazin-7-yl}phenyl)amino]phenyl}methanesulfonamide]
14 | > 10 | COc1cc(Nc2ncc3c(C)nc(-c4cccc(Nc5ccc(CN6CCN(C)CC6)cc5)c4)n3n2)cc(OC)c1OC [Example 68, 5-Methyl-7-[3-({4-[(4-methylpiperazin-1-yl)methyl]phenyl}-amino)phenyl]-N-/(3,4,5-trimethoxyphenyl)imidazo[5,1-f][1,2,4]triazin-2-amine]
15 | 0.1 to 10 | COc1cc(Nc2ncc3c(C)nc(-c4cccc(Nc5cccc(S(=O)(=O)NC6CC6)c5)c4)n3n2)cc(OC)c1OC [Example 69, N-Cyclopropyl-3-[(3-{5-methyl-2-[(3,4,5-trimethoxyphenyl)amino]imidazo[5,1-f][1,2,4]triazin-7-yl}phenyl)amino]benzenesulfonamide]
16 | 0.1 to 10 | COc1ccc(Nc2ncc3c(C)nc(-c4ccc(Br)s4)n3n2)cc1 [Example 70, 7-(5-Bromo-2-thienyl)-5-methyl-N-[4-(methyloxy)phenyl]imidazo[5.1-f][1,2,4]triazin-2-amine]

Row | IC50 [µM] | Structure (SMILES)
17 | 0.1 to 10 | COc1ccc(Nc2ncc3c(C)nc(-c4sccc4Br)n3n2)cc1 [Example 71, 7-(3-Bromo-2-thienyl)-5-methyl-N-[4-(methyloxy)phenyl]imidazo[5,1-f][1,2,4]triazin-2-amine]
18 | 0.1 to 10 | COc1ccc(Nc2ncc3c(C)nc(C4CCOCC4)n3n2)cc1 [Example 72, 5-Methyl-N-[4-(methyloxy)phenyl]-7-(tetrahydro-2H-pyran-4-yl)imidazo[5,1-f][1,2,4]triazin-2-amine]
19 | 0.1 to 10 | COc1ccc(Nc2ncc3c(C)nc(-c4ccccc4OC)n3n2)cc1 [Example 73, 5-Methyl-7-[2-(methyloxy)phenyl]-N-[4-(methyloxy)phenyl]-imidazo[5,1-f][1,2,4]triazin-2-amine]
20 | 0.1 to 10 | COc1ccc(Nc2ncc3c(C)nc(-c4cccc(OC)c4)n3n2)cc1 [Example 74, 5-Methyl-7-[3-(methyloxy)phenyl]-N-[4-(methyloxy)phenyl]-imidazo[5,1-f][1,2,4]triazin-2-amine]
21 | 0.1 to 10 | COc1ccc(Nc2ncc3c(C)nc(-c4ccccc4Cl)n3n2)cc1 [Example 75, 7-(2-Chlorophenyl)-5-methyl-N-[4-(methyloxy)phenyl]imidazo[5,1-f][1,2,4]triazin-2-amine]
22 | 0.1 to 10 | COc1ccc(Nc2ncc3c(C)nc(-c4cn(C)c5ccccc45)n3n2)cc1 [Example 76, 5-Methyl-7-(1-methyl-1H-indol-3-yl)-N-[4-(methyloxy)phenyl]imidazo[5,1-f][1,2,4]triazin-2-amine]
23 | > 10 | COc1ccc(Nc2ncc3c(C)nc(C(C)c4ccccc4)n3n2)cc1 (centres unmarked) [Example 77, 5-Methyl-N-[4-(methyloxy)phenyl]-7-(1-phenylethyl)imidazo[5,1-f][1,2,4]triazin-2-amine]
24 | > 10 | COc1ccc(Nc2ncc3c(C)nc(-c4cc5ccccc5n4C)n3n2)cc1 [Example 78, 5-Methyl-7-(1-methyl-1H-indol-2-yl)-N-[4-(methyloxy)phenyl]imidazo[5,1-f][1,2,4]triazin-2-amine]
25 | 0.1 to 10 | COc1ccc(Nc2ncc3c(C)nc(-c4ccsc4)n3n2)cc1 [Example 79, 5-Methyl-N-[4-(methyloxy)phenyl]-7-(3-thienyl)imidazo[5,1-f][1,2,4]triazin-2-amine]
26 | 0.1 to 10 | COc1ccc(Nc2ncc3c(C)nc(-c4ccoc4)n3n2)cc1 [Example 80, 7-(3-Furanyl)-5-methyl-N-[4-(methyloxy)phenyl]imidazo-[5,1-f][1,2,4]triazin-2-amine]
27 | 0.1 to 10 | COc1ccc(Nc2ncc3c(C)nc(-c4ccco4)n3n2)cc1 [Example 81, 7-(2-Furanyl)-5-methyl-N-[4-(methyloxy)phenyl]imidazo-[5,1-f][1,2,4]triazin-2-amine]
28 | 0.1 to 10 | COc1ccc(Nc2ncc3c(C)nc(-c4ccc(F)cc4)n3n2)cc1 [Example 82, 7-(4-Fluorophenyl)-5-methyl-N-[4-(methyloxy)phenyl]-imidazo[5,1-f][1,2,4]triazin-2-amine]
29 | 0.1 to 10 | COc1ccc(Nc2ncc3c(C)nc(-c4cccs4)n3n2)cc1 [Example 83, 5-Methyl-N-[4-(methyloxy)phenyl]-7-(2-thienyl)imidazo[5,1-f][1,2,4]triazin-2-amine]
30 | 0.1 to 10 | COc1ccc(Nc2ncc3c(C)nc(C4CC4)n3n2)cc1 [Example 84, 7-Cyclopropyl-5-methyl-N-[4-(methyloxy)phenyl]-imidazo[5,1-f][1,2,4]triazin-2-amine]
31 | 0.1 to 10 | COc1ccc(Nc2ncc3c(C)nc(C4CCCCC4)n3n2)cc1 [Example 85, 7-Cyclohexyl-5-methyl-N-[4-(methyloxy)phenyl]imidazo[5,1-f][1,2,4]triazin-2-amine]
32 | 0.1 to 10 | COc1ccc(Nc2ncc3c(C)nc(-c4ccccc4F)n3n2)cc1 [Example 86, 7-(2-FluorophenylFluorophenyl)-5-methyl-N-[4-(methyloxy)phenyl]imidazo[5,1-f][1,2,4]triazin-2-amine]
